Experimental findings from US12098153B2, “Small molecule inhibitors targeting Clostridioides difficile sporulation” (UNIVERSITY OF SOUTH FLORIDA, priority 2021, dated 2024) are described below.

SMILES strings stand for the structures.

T1 sequence (A0A9R0BM53 entry or part of it): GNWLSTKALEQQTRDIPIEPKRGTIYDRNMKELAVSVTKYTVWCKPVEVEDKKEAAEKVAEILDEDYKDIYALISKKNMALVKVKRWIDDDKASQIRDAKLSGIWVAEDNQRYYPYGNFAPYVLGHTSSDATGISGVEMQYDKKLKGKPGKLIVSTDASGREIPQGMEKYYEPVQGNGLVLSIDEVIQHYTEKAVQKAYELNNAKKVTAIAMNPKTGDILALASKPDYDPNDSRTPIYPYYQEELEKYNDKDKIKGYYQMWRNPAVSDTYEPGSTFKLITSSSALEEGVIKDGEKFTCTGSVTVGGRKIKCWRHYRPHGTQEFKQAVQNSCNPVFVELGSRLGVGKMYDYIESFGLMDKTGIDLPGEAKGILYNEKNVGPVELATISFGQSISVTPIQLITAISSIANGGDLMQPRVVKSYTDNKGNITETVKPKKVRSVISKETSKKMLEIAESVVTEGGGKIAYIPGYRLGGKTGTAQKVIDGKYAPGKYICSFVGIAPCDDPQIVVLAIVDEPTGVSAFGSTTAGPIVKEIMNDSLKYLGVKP

One assay addresses T1, SpoVD (CdSpoVD, CDR20291_2544; soluble construct SpovD 38-583) (Clostridioides difficile, UniProt A0A9R0BM53).
T1 construct: pETGSTSUMO vector (NheI/XhoI), E. coli BL21(DE3) pLysS; fusion tag removed with ULP1
As to the kind of experiment: Bacillin (bocillin) inhibition assay, SpoVD.
Details: not given
Format: biochemical. The protocol:
FIG. 2 is a table of IC50 values of select $-lactam antibiotics against SpoVD, their percentage inhibition of sporulation, and the concentration at which they were tested (½ MIC).
FIGS. 4A-4F show chemical structures of DPO sporulation inhibitors, their biochemical inhibition against SpoVD and their in vitro sporulation inhibition, wherein * indicates >50%, ** indicates >90%, and ***>95%.
(§1) Reactions were performed in a 96-well polystyrene plate with a final volume of 60 μl at 37° C. in 1× tris-buffered saline (20 mM Tris, 150 mM NaCl). […] Protein was then diluted and added to the well for a final concentration of 1 μM and incubated for 15 minutes at 37° C. 1 μL of bocillin (BOCILLIN™ FL Penicillin, Sodium Salt, Thermo Fisher Scientific) was added to each well for a final concentration of 20 μM, and incubated for 10 minutes at 37° C. Reactions were killed with 10 μL of 6×SDS loading buffer and pooled or directly loaded onto a 15-well Novex Wedgewell 8% Tris-Glycine Gels and ran at 175 V for ˜1 hour. Gels were then imaged (Biorad) for 6 seconds with the fluorescein blot filter setting and analyzed using ImageJ. All values were normalized to background intensity and divided by the average of three control intensities (no inhibitor) for % inhibition value. Assays were performed in duplicate or triplicate and IC50 values were calculated using a 3-parameter nonlinear regression.
(§2) The coding sequence corresponding to the soluble constructs of CDR20291_1067 (PBP3), CDR20291_0985 (PBP2) and CDR20291_2544 (CdSpoVD) were amplified from C. difficile R20291 genomic DNA The expression vector was modified from pETGST, in which the thrombin cleavage site was replaced by TEV (named pETGSTTEV) or ULP1 (named pETGSTSUMO) cleavage site. The vector was digested and the PCR fragments for each protein was inserted into the multi-clone site accordingly. SpovD 38-583 inserted into the NheI/XhoI site of the pETGSTSUMO vector. Cloned vector was then transformed into BL21(DE3) pLysS Escherichia coli (E. coli). Standard overnight cultures were grown in LB media containing chloramphenicol and kanamycin and used to inoculate 1 L LB cultures.
(§3) Cultures were grown until the optical density (OD600) reached ˜0.7. Protein expression was then induced with 0.5 mM isopropyl-β-d-thiogalactopyranoside (IPTG) overnight at 20° C. Cells were harvested via centrifugation at 4000×g for 10 minutes at 4° C. The cell pellet was suspended with a solution of 20 mM Tris pH 8.0, 200 mM NaCl, 20 mM imidazole, and one dissolved Thermo Scientific™ Pierce Protease Inhibitor Tablets. Cells were lysed with a sonicator using a 10 second sonication/15 second rest cycle for 15 minutes. Cell lysate was centrifuged at 45,000×g for 35 minutes and supernatant was loaded onto a HisTrap affinity column (GE Healthcare). A linear gradient of buffer B (20 mM Tris pH 8.0, 300 mM NaCl, 500 mM imidazole, and 10% glycerol) was applied to elute the recombinant protein which usually occurred at 30% buffer B. These fractions were pooled and buffer exchanged three times into protease buffer (20 mM Tris pH 8.0, 10% glycerol) using an Amicon Ultra centrifugal filter (Sigma-Aldrich). Purified His6-tagged TEV protease was added to all proteins at a 1:20 ratio except for CdSpoVD and incubated overnight at 4° C. Pure His6-tagged ULP1 protease was added to CdSpoVD at 1:20 ratio and incubated overnight at 4° C. The digested protein was re-loaded onto the HisTrap affinity column. Flowthrough was collected, concentrated, and loaded to a HiLoad 16/60 Superdex 75 size exclusion column (GE Healthcare) where it ran at a flow rate of 0.5 ml/min. Peak fractions were combined and purity assessed (>95%) with gel-electrophoresis. The identity of each enzyme was independently characterized with gel-electrophoresis, native-mass spectrometry, bocillin or nitrocefin binding, and/or X-ray crystallography.
By IC50 is commonly meant the concentration that inhibits the measured activity by half. Compound `CC(C)(O/N=C(\C(=O)N[C@@H]1C(=O)N2C(C(=O)[O-])=C(C[n+]3ccccc3)CS[C@H]12)c1csc(N)n1)C(=O)O` [Ceftazidime] came in with an IC50 of 2.47 µM.
The same measure, in the same setting: as for `CC1(C)S[C@@H]2[C@H](NC(=O)[C@H](N)c3ccccc3)C(=O)N2[C@H]1C(=O)O` [Ampicillin], the figure is 2.54 µM; as for `C[C@H]1[C@H](NC(=O)/C(=N\OC(C)(C)C(=O)O)c2csc(N)n2)C(=O)N1S(=O)(=O)O` [Aztreonam], 1.36 µM.
Regarding `CC(=O)OCC1=C(C(=O)O)N2C(=O)[C@@H](NC(=O)Cc3cccs3)[C@H]2SC1` [Cefalothin], the IC50 stood at 0.27 µM.

The assay is the same for the next values; noted with them: FIG. 2; 1 μM protein, 15 min preincubation at 37° C., 20 μM bocillin; read-out: SpoVD IC50.
`O=C(Nc1ccccc1)[C@@H]1CC[C@@H]2CN1C(=O)N2OS(=O)(=O)O` [Spo6]: the IC50 was determined as 103 µM.
As for `Cc1onc(-c2ccccc2Cl)c1C(=O)N[C@@H]1C(=O)N2[C@@H]1SC(C)(C)[C@@H]2C(=O)O` [Cloxacillin], the IC50 was found to be 6.12 µM.
As to `Nc1nc(/C(=N/O)C(=O)N[C@@H]2C(=O)N3C(C(=O)O)=C(/C=C4\CCN([C@@H]5CCNC5)C4=O)CS[C@H]23)ns1` [Ceftobiprole], the IC50 stood at 62.5 µM.
In the case of `NC(=O)[C@@H]1CC[C@@H]2CN1C(=O)N2OS(=O)(=O)O` [Avibactam], the IC50 was 165 µM.
Consider `CO/N=C(\C(=O)N[C@@H]1C(=O)N2C(C(=O)O)=C(COC(C)=O)CS[C@H]12)c1csc(N)n1` [Cefotaxime], for which the IC50 is 7.83 µM.
As for `O=C(NCc1ccccc1)[C@@H]1CC[C@@H]2CN1C(=O)N2OS(=O)(=O)O` [Spo7], the IC50 turned out to be 53.1 µM.
For the compound `CO[C@@]1(NC(=O)Cc2cccs2)C(=O)N2C(C(=O)O)=C(COC(N)=O)CS[C@@H]21` [Cefoxitin], the IC50 was determined as 0.94 µM.
As to `O=C(CNC(=O)[C@@H]1CC[C@@H]2CN1C(=O)N2OS(=O)(=O)O)c1ccccc1` [Spo8], the IC50 was 63.8 µM.

The assay is the same for the next values; noted with them: FIGS. 4A-4F; 1 μM protein, 15 min preincubation at 37° C., 20 μM bocillin; read-out: SpoVD IC50.
For `O=C(Nc1ccccc1)[C@@H](Cc1ccccc1)NC(=O)[C@@H]1CC[C@@H]2CN1C(=O)N2OS(=O)(=O)O` [Spo10], the IC50 worked out at 3.92 µM.
In the case of `O=C(Nc1ccccc1)[C@H](NC(=O)[C@@H]1CC[C@@H]2CN1C(=O)N2OS(=O)(=O)O)c1ccccc1` [Spo9], the IC50 worked out at 13 µM.

A further assay deals with T2, PBP3 (CDR20291_1067; soluble construct) (Clostridioides difficile, UniProt A0A9R0CE13).
T2 construct: modified pETGST vector with TEV site, E. coli BL21(DE3) pLysS; tag removed with TEV
T2 sequence (A0A9R0CE13 entry or part of it): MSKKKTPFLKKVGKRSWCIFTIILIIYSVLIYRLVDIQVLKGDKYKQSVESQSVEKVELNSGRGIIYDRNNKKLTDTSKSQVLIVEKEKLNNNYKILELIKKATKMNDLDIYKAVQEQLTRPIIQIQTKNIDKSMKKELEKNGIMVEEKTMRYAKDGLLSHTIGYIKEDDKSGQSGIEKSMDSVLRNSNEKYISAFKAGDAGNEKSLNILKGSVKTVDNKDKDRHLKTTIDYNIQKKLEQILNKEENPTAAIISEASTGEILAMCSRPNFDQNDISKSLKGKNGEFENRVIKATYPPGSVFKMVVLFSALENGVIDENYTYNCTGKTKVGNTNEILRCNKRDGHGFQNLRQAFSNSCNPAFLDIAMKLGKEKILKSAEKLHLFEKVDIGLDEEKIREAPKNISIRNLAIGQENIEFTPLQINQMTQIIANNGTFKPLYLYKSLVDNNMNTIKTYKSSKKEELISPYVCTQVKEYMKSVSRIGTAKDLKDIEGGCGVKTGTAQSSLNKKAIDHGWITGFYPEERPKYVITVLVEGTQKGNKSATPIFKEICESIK
As to the kind of experiment: Bacillin (bocillin) inhibition assay, PBP3. Format: biochemical. The conditions noted are these: FIGS. 6A-6F; 1 μM protein, 15 min preincubation at 37° C., 20 μM bocillin. The protocol: FIGS. 6A-6F show the crystal structure of PBP3 and the chemical structures of DBO sporulation inhibitors, wherein * indicates >50%, ** indicates >90%, and ***>95%.
as §1, §2
as §3, with “The identity of each enzyme was independently characterized with gel-electrophoresis, native-mass spectrometry, bocillin or nitrocefin binding, and/or X-ray crystallography.” left out
Take `O=C(Nc1ccccc1)[C@@H]1CC[C@@H]2CN1C(=O)N2OS(=O)(=O)O` [Spo6]: 2.01 µM corresponded to half-maximal inhibition (IC50).
`NC(=O)[C@@H]1CC[C@@H]2CN1C(=O)N2OS(=O)(=O)O` [Avibactam] returned an IC50 of 5.38 µM.
Take `O=C(Nc1ccccc1)[C@H](NC(=O)[C@@H]1CC[C@@H]2CN1C(=O)N2OS(=O)(=O)O)c1ccccc1` [Spo9]: half-maximal inhibition (IC50) required 4.86 µM.
Regarding `O=C(Nc1ccc(-n2cccn2)cc1)[C@@H]1CC[C@@H]2CN1C(=O)N2OS(=O)(=O)O` [Spo12], the midpoint of inhibition, the IC50, lay at 0.69 µM.
Turning to `O=C(Nc1cccc2ccccc12)[C@@H]1CC[C@@H]2CN1C(=O)N2OS(=O)(=O)O` [Spo11], 2.24 µM corresponded to half-maximal inhibition (IC50).
